Measured values: publication PMC8448163 (Antimicrobial Agents and Chemotherapy, 2021)
“And” between values parts separate entries of the source, which are not always exact repeats. Equal values may be shown once. Read-outs that look alike come from different tables or passages of the source.

Legend:
ECV-11 isolates = experiment: organism not typed; type: cell-based; conditions: read-out: EC50, range
clinical [1] = conditions: human, in vivo
healthy adult volunteers [2] = experiment: Phase 1 MAD study, safety and tolerability
poliovirus = conditions: in vitro, in combination with capsid inhibitors including pocapavir; cited from earlier work
[3] = tested on: EV panel comprising 47 PV strains and 36 nonpolio EV strains; experiment: microbe, parasite or virus in culture; type: cell-based; conditions: Enterovirus, read-out: EC50, mean
CV-A16 = experiment: microbe, parasite or virus in culture; type: cell-based; conditions: Enterovirus A, CVA16
clinical [4] = conditions: human, in vivo; remark: listed apart in the source
[5] = for mean and individual trough concentrations: LLOQ 1.00 ng/ml; for time of peak of mean plasma concentration: MAD BID
in vivo [6] = conditions: rat, po
in vivo [7] = conditions: dog, po
[8] = in vitro
[9] = healthy adult males (n = 14), single oral doses 200 mg to 2,000 mg; cited from earlier work
healthy adult volunteers [10] = experiment: Phase 1 SAD study, safety and tolerability
[11] = MAD, one participant, 2,000 mg BID cohort, day 7, normal two days later
[12] = SAD, 10-fold increase in dose from 200 mg to 2,000 mg

In the case of C#CC[C@@H](C(=O)N[C@H](/C=C/C(=O)OCC)C[C@@H]1CCNC1=O)n1cccc(NC(=O)c2cc(C)on2)c1=O [V-7404], the EC50 (ECV-11 isolates) is reported as 0.032 to 0.352 µM, the Tmax (clinical [1]) is reported as 15 to 30 min and the Vd/F (clinical [1]; Vz/F) is reported as 3780 L. It also gave an AUC (clinical [1]; po, 500 mg, AUC (AUC0–tau)) of 302 ng·h/mL, a Cmax (clinical [1]; po, 500 mg, Cmax) of 247 ng/mL and a Cmax at 14 days (clinical [1]; po, 500 mg, Cmax) of 370 ng/mL. The Vd/F at 14 days (clinical [1]; po, 500 mg, Vz/F) was 3020 L, the Tmax (clinical [1]; po, 500 mg, tmax) was 28.8 min and the Tmax at 14 days (clinical [1]; po, 500 mg, tmax) was 15 min. For the same compound, the half-life (clinical [1]; t1/2) was 79.2 min, the Tmax (clinical [1]; tmax(0–4 h)) was 30 min and the Tmax (clinical [1]; tmax(4–24 h)) was 45 min. The “deaths or SAEs” value (healthy adult volunteers [2]; MAD study) was “No deaths or SAEs were reported”, the “proportion of related TEAEs” value (healthy adult volunteers [2]; MAD, 1,000 mg QD) was 12.5% and the “proportion of related TEAEs” value (healthy adult volunteers [2]; MAD, 2,000 mg BID) was 75%. The “participants with increased lipase levels (asymptomatic) leading to discontinuation” value (healthy adult volunteers [2]; MAD, 2,000 mg BID cohort, 1/41 participants) was 2.4%, the “proportion of related TEAEs” value (healthy adult volunteers [2]; MAD, 2,000 mg QD) was 22.2% and the “participants with moderate TEAEs” value (healthy adult volunteers [2]; MAD, V-7404 group, 2/33 participants) was 6.1%. The “participants with mild TEAEs” value (healthy adult volunteers [2]; MAD, V-7404 group, 10/33 participants) was 30.3%, the amylase (healthy adult volunteers [2]; [11]) was 2.7 × ULN and the lipase (healthy adult volunteers [2]; [11]) was 4.5 × ULN. For the same compound, the “activity in combination with antiviral capsid inhibitors” value (poliovirus) was “synergistic activity”, the EC50 [3] was 379 nM and 0.198 µg/mL and the EC50 (CV-A16) was 5.99 µM. It also gave a Tmax (clinical [4]) of 15 to 37.8 min, an AUC(0-inf) (clinical [4]; po, 200 mg, AUC (AUC0–inf)) of 77.4 ng·h/mL and a Cmax (clinical [4]; po, 200 mg, Cmax) of 83.3 ng/mL. It also gave a Vd/F (clinical [4]; po, 200 mg, Vz/F) of 1170 L, a half-life (clinical [4]; po, 200 mg, t1/2) of 18.9 min and a Tmax (clinical [4]; po, 200 mg, tmax) of 30 min. For the same compound, the half-life (clinical [4]; t1/2, range across cohorts) was 19.2 to 140 min, the “mean and individual trough concentrations” value ([5]; MAD 500 mg QD, days 2, 3, 7, 11 and 14) was “BLQ” and the “mean and individual trough concentrations” value ([5]; MAD 1,000 mg QD, days 2, 3, 7, 11 and 14) was “BLQ”. For the same compound, the “accumulation (RAUC and RCmax)” value ([5]; MAD 2,000 mg BID, day 14) was “no accumulation”, the mean trough concentrations ([5]; MAD 2,000 mg BID, days 2, 3, 7, 11 and 14) was “either BLQ or were less than twice the LLOQ of 1.00 ng/ml” and the “time of peak of mean plasma concentration” value ([5]; following the first dose of the day) was 0.50 h. For the same compound, the “time of peak of mean plasma concentration” value ([5]; following the second dose of the day, day 1) was 0.75 h, the “time of peak of mean plasma concentration” value ([5]; following the second dose of the day, day 14) was 0.50 h and the “RAUC and RCmax, all ratios” value ([5]; MAD QD, day 14, all dose levels) was “less than 1.5”. For the same compound, the mean trough concentrations ([5]; MAD, 2,000 mg QD) was “either BLQ or were less than twice the lower limit of quantification (LLOQ) of 1.00 ng/ml”, the CL/F ([5]; human, in vivo) was 1,987 liters/h and the CLss/F ([5]; human, in vivo) was 2125 L/h. The Vz/F ([5]; human, in vivo) was 6542 L, the t1/2 ([5]; human, in vivo) was 136.2 min and the CL/F ([5]; human, in vivo, po, 500 mg) was 2,076 liters/h. The “CL/F (CLss/F)” value ([5]; human, in vivo, po, 500 mg) was 1,656 liters/h, the NOAEL (in vivo [6]) was 1500 mg/kg/day and the NOAEL (in vivo [7]) was 1500 mg/kg/day. For the same compound, the genotoxicity study results [8] was “negative”, the tolerability [9] was “well tolerated with no serious adverse events (SAEs)” and the “deaths or SAEs” value (healthy adult volunteers [10]; SAD study) was “No deaths or SAEs were reported”. The “participants with moderate TEAEs” value (healthy adult volunteers [10]; SAD, V-7404 group, 1/24 participants) was 4.2%, the “participants with mild treatment-emergent AEs (TEAEs)” value (healthy adult volunteers [10]; SAD, V-7404 group, 4/24 participants) was 16.7% and the elevated lipase (healthy adult volunteers [10]; SAD, one participant, 1,000 mg cohort, day 2, asymptomatic, normal 3 days later) was 4.0 × the upper limit of normal (U. The “geometric mean AUC0–inf lower for fed compared to fasted” value (SAD 500 mg) was 50%, the “geometric mean Cmax lower for fed compared to fasted” value (SAD 500 mg) was 66% and the “increase of geometric mean AUC0–inf” value [12] was 14.2 fold. The “increase of geometric mean Cmax” value [12] was 7.6 fold, the “time of peak of mean plasma concentrations” value (human, in vivo) was 0.25 to 0.75 h and the Cmax (human, in vivo, po, 500 mg) was 366.6 ng/mL.
